Reference: patent US9198420B2, “Rodenticidal norbormide analogues” (priority 2012, dated 2015)

Assays:
rat caudal artery = assay: Rat caudal artery ring contractile force (vasoconstrictory activity); parameters: species or system rat (male Wistar)
Procedure: Male Wistar rats (150-250 g) were obtained from Charles River Italia (Milano, Italy) and killed by decapitation. Ventral caudal artery was isolated, placed in Tyrode solution at room temperature and cleaned of extraneous fatty and connective tissue under a dissection microscope. All vessels were cut into rings 2 mm long, mounted on a custom-built plexiglass support by means of two intraluminal tungsten wires and placed in 20 mL double-jacketed organ baths filled with Tyrode solution of the following composition (mM): NaCl 125, KCl 5, CaCl2 2.7, MgSO4 1, KH2PO4 1.2, NaHCO3 25 and glucose 11, maintained at 37° C., pH 7.35, bubbled with 95% O2 and […]. The endothelium was removed by gently rubbing the lumen of the rings with a very thin rough-surfaced tungsten wire (caudal artery). The mechanical activity of the rings was detected by means of an isometric force transducer (Ugo Basile, Comerio, Italy) coupled to a pen recorder (Ugo Basile, Comerio, Italy). Rings were passively stretched to impose a resting tension (2 g) and were allowed to equilibrate for 60 min. After equilibration, each ring was repeatedly simulated with both KCl (90 mM) and phenylephrine (10 μM) until reproducible responses were obtained. To verify the absence of the endothelium, rings contracted with 1 μM phenylephrine were exposed to […] carbamylcholine. […] Each compound was tested for the vasoconstrictor activity at a concentration of 50 μM, which has been previously reported to be the one evoking the maximal response to norbormide. The contractile responses to the compounds were expressed as percent of the 90 mM KCl response.

[1] = Simulated gastric fluid (SGF) hydrolytic stability assay; type: physicochemical; conditions: simulated gastric fluid without pepsin, pH 1.2, 37° C., 1 h, n = 3; for % NRB released, Hydrolytic Stability (simulated gastric fluid): footnote c: compounds not exhibiting vasoconstriction
Procedure: All in vivo candidates were subjected to a 1 h hydrolytic stability appraisal in the presence of SGF, without pepsin (United States Pharmacopoeia 24) [200 μL total volume, sodium chloride solution (0.03 M) acidified to pH 1.2 with concentrated hydrochloric acid, at a final compound concentration of 200 μM, 2.5% DMSO overall, 37° C., n=3], to investigate any potential chemical instabilities that may occur in the acidic environment of the stomach prior to uptake. Analysis was by RP-LCMS at an injection volume of 5 μL.

[2] = Rat serum assay (release of NRB or NRB analogue); type: in vitro ADME; conditions: 80% rat serum, 37° C., 3 h, n = 3
Procedure: The hydrolytic stability of compounds of the invention in rat blood was evaluated using in vitro rat serum obtained from Sigma-Aldrich and stored at −78° C. Similar assay conditions to those reported by Li Di and co-workers (Int. J. Pharm. 2005, 297, 110-119) were followed [200 μL total volume, 80% rat serum (diluting with phosphate buffer (0.1 M, pH 7.4)), at a final compound concentration of 200 μM, 2.5% DMSO overall, 37° C., 3 h, n=3] using an Eppendorf Thermomixer Compact. Reactions were quenched by transferring 150 μL of the incubation mixture to 450 μL of ice-cold acetonitrile, affording a final compound/NRB or NRB analogue concentration of 50 μM. Samples were centrifuged at 14,500×g for 15 min using an Eppendorf Mini Spin Plus centrifuge, at ambient temperature. 400 μL of the supernatant was removed and transferred to clean tubes. Analysis was by RP-LCMS at an injection volume of 20 μL. Each compound and corresponding NRB or NRB analogue were subjected to external calibration curves at 50 μM, 100 μM and 200 μM to allow conversion of absorbance unit area into nmol, from which the percentage of NRB or NRB analogue released from each compound was calculated.

[3] = Table 5, compounds of formula (III)

SMILES	Vasoconstriction: maximum contractile effect as a % of 90 mM KCl contraction (rat caudal artery; [3]) [%]	Vasoconstriction: maximum contractile effect as a % of 90 mM KCl contraction (rat caudal artery; n = 3, pre-cleavage, Table 6) [%]	% NRB released, Hydrolytic Stability [1] [%]	% NRB released, Rat Serum [2] [%]	Vasoconstriction: maximum contractile effect as a % of 90 mM KCl contraction (rat caudal artery; Table 1, compound at 50 μM) [%]	Vasoconstriction: maximum contractile effect as a % of 90 mM KCl contraction (rat caudal artery; Table 4, pre-cleavage, n = 3) [%]	% NRB released, Hydrolytic Stability (simulated gastric fluid) [1]
O=C(CCC(=O)OCN1C(=O)C2C3C=C(C(O)(c4ccccc4)c4ccccn4)C(C3=C(c3ccccc3)c3ccccn3)C2C1=O)OCN1C(=O)C2C3C=C(C(O)(c4ccccc4)c4ccccn4)C(C3=C(c3ccccc3)c3ccccn3)C2C1=O (stereo not drawn) [Compound 21, 5-(α-Hydroxy-α-2-pyridylbenzyl)-7-(α-2-pyridylbenzylidene)-N-succinoyloxymethyl-5-norbornene-2,3-dicarboximide dimer]	0	0	0	29.6 ± 5.4			
O=C(CCCCC(=O)OCN1C(=O)C2C3C=C(C(O)(c4ccccc4)c4ccccn4)C(C3=C(c3ccccc3)c3ccccn3)C2C1=O)OCN1C(=O)C2C3C=C(C(O)(c4ccccc4)c4ccccn4)C(C3=C(c3ccccc3)c3ccccn3)C2C1=O (stereo not drawn) [Compound 22, N-Adipoyloxymethyl-5-(α-hydroxy-α-2-pyridylbenzyl)-7-(α-2-pyridylbenzylidene)-5-norbornene-2,3-dicarboximide dimer]	0	0	0	13.4 ± 0.2			
O=C(CCCCCCC(=O)OCN1C(=O)C2C3C=C(C(O)(c4ccccc4)c4ccccn4)C(C3=C(c3ccccc3)c3ccccn3)C2C1=O)OCN1C(=O)C2C3C=C(C(O)(c4ccccc4)c4ccccn4)C(C3=C(c3ccccc3)c3ccccn3)C2C1=O (stereo not drawn) [Compound 23, 5-(α-Hydroxy-α-2-pyridylbenzyl)-7-(α-2-pyridylbenzylidene)-N-suberoyloxymethyl-5-norbornene-2,3-dicarboximide dimer]	0	0	0	14.9 ± 5.0			
O=C(CCCCCCCCCCC(=O)OCN1C(=O)C2C3C=C(C(O)(c4ccccc4)c4ccccn4)C(C3=C(c3ccccc3)c3ccccn3)C2C1=O)OCN1C(=O)C2C3C=C(C(O)(c4ccccc4)c4ccccn4)C(C3=C(c3ccccc3)c3ccccn3)C2C1=O (stereo not drawn) [Compound 25, N-Dodecanedioyloxymethyl-5-(α-hydroxy-α-2-pyridylbenzyl)-7-(α-2-pyridylbenzylidene)-5-norbornene-2,3-dicarboximide dimer]	0	0	0	<5			
O=C(OCN1C(=O)C2C3C=C(C(O)(c4ccccc4)c4ccccn4)C(C3=C(c3ccccc3)c3ccccn3)C2C1=O)c1ccc(C(=O)OCN2C(=O)C3C4C=C(C(O)(c5ccccc5)c5ccccn5)C(C4=C(c4ccccc4)c4ccccn4)C3C2=O)cc1 (stereo not drawn) [Compound 26, 5-(α-Hydroxy-α-2-pyridylbenzyl)-7-(α-2-pyridylbenzylidene)-N-terephthaloyloxymethyl-5-norbornene-2,3-dicarboximide dimer]	0	0	0	<5			
O=C(CCC(=O)OCN1C(=O)C2C3C=C(C(O)(c4ccccc4)c4ccccn4)C(C3=C(c3ccccc3)c3ccccn3)C2C1=O)OCCOC(=O)CCC(=O)OCN1C(=O)C2C3C=C(C(O)(c4ccccc4)c4ccccn4)C(C3=C(c3ccccc3)c3ccccn3)C2C1=O (stereo not drawn) [Compound 27, N-[α-(Ethylenebis(hydrogensuccinoyloxy))methyl]-5-(α-hydroxy-α-2-pyridylbenzyl)-7-(α-2-pyridylbenzylidene)-5-norbornene-2,3-dicarboximide dimer]	0	0	0	20.8 ± 0.7			
CCCCCCCCCCCC(=O)OCCN1C(=O)C2C3C=C(C(O)(c4ccccc4)c4ccccn4)C(C3=C(c3ccccc3)c3ccccn3)C2C1=O (stereo not drawn) [Compound 112, N-2′-Dodecanoyloxyethyl-5-(α-hydroxy-α-2-pyridylbenzyl)-7-(α-2-pyridylbenzylidene)-5-norbornene-2,3-dicarboximide]				19.3 ± 1.3	0	0	0^c %
O=C(C=Cc1ccccc1)OCCN1C(=O)C2C3C=C(C(O)(c4ccccc4)c4ccccn4)C(C3=C(c3ccccc3)c3ccccn3)C2C1=O (stereo not drawn) [Compound 120, N-2′-Cinnamoyloxyethyl-5-(α-hydroxy-α-2-pyridylbenzyl)-7-(α-2-pyridylbenzylidene)-5-norbornene-2,3-dicarboximide]				14.1 ± 0.4	66	66	0^c %
CC(CN1C(=O)C2C3C=C(C(O)(c4ccccc4)c4ccccn4)C(C3=C(c3ccccc3)c3ccccn3)C2C1=O)OC(=O)C=Cc1ccccc1 (stereo not drawn) [Compound 135, N-2′-Cinnamoyloxypropyl-5-(α-hydroxy-α-2-pyridylbenzyl)-7-(α-2-pyridylbenzylidene)-5-norbornene-2,3-dicarboximide]				33.8 ± 6.1	0	0	0^c %
O=C(C=Cc1ccccc1)OCCCCN1C(=O)C2C3C=C(C(O)(c4ccccc4)c4ccccn4)C(C3=C(c3ccccc3)c3ccccn3)C2C1=O (stereo not drawn) [Compound 137, N-4′-Cinnamoyloxybutyl-5-(α-hydroxy-α-2-pyridylbenzyl)-7-(α-2-pyridylbenzylidene)-5-norbornene-2,3-dicarboximide]				81.0 ± 0.8	0	0	0^c %
O=C(CCC(=O)OCCN1C(=O)C2C3C=C(C(O)(c4ccccc4)c4ccccn4)C(C3=C(c3ccccc3)c3ccccn3)C2C1=O)OCCN1C(=O)C2C3C=C(C(O)(c4ccccc4)c4ccccn4)C(C3=C(c3ccccc3)c3ccccn3)C2C1=O (stereo not drawn) [Compound 138, 5-(α-Hydroxy-α-2-pyridylbenzyl)-7-(α-2-pyridylbenzylidene)-N-2′-succinoyloxyethyl-5-norbornene-2,3-dicarboximide dimer]	0	0	0	7.7 ± 0.2			
O=C(CCCCC(=O)OCCN1C(=O)C2C3C=C(C(O)(c4ccccc4)c4ccccn4)C(C3=C(c3ccccc3)c3ccccn3)C2C1=O)OCCN1C(=O)C2C3C=C(C(O)(c4ccccc4)c4ccccn4)C(C3=C(c3ccccc3)c3ccccn3)C2C1=O (stereo not drawn) [Compound 139, N-2′-Adipoyloxyethyl-5-(α-hydroxy-α-2-pyridylbenzyl)-7-(α-2-pyridylbenzylidene)-5-norbornene-2,3-dicarboximide dimer]	20	20	0	11.7 ± 1.6			
